Legend:
Assay type in all cases: in vivo
[1] = tested on: barnyardgrass (Echinochloa crus-galli); test: Test A preemergence, barnyardgrass; conditions: Preemergence; for Plant response rating, Barnyardgrass: 125 g ai/ha, visual injury, 0 to 100 scale (0 no effect, 100 complete control), approx. 10 days; for Barnyardgrass plant response rating: 500 g ai/ha, visual injury on 0 to 100 scale (0 no effect, 100 complete control), approximately 10 days
Summary of the method: (§1)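 Formulated with a surfactant in a non-phytotoxic solvent, compounds are applied to loam–sand pots, either to bare soil immediately after seeding (preemergence) or to seedlings of 2 to 10 cm bearing one to two leaves (postemergence).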

kochia (Bassia scoparia) [2] = test: Test A preemergence, kochia; conditions: Preemergence; for Plant response rating, Kochia: 125 g ai/ha, visual injury, 0 to 100 scale (0 no effect, 100 complete control), approx. 10 days; for Kochia plant response rating: 500 g ai/ha, visual injury on 0 to 100 scale (0 no effect, 100 complete control), approximately 10 days
Summary of the method: as §1

[3] = tested on: ragweed (common ragweed, Ambrosia artemisiifolia); test: Test A preemergence, ragweed; conditions: Preemergence; for Plant response rating, Ragweed: 125 g ai/ha, visual injury, 0 to 100 scale (0 no effect, 100 complete control), approx. 10 days; for Ragweed plant response rating: 500 g ai/ha, visual injury on 0 to 100 scale (0 no effect, 100 complete control), approximately 10 days
Summary of the method: as §1

[4] = tested on: Ryegrass, Italian (Italian ryegrass, Lolium multiflorum); test: Test A preemergence, Ryegrass, Italian; conditions: Preemergence; for Plant response rating, Ryegrass, Italian: 125 g ai/ha, visual injury, 0 to 100 scale (0 no effect, 100 complete control), approx. 10 days; for Ryegrass, Italian plant response rating: 500 g ai/ha, visual injury on 0 to 100 scale (0 no effect, 100 complete control), approximately 10 days
Summary of the method: as §1

[5] = tested on: Foxtail, Giant (giant foxtail, Setaria faberi); test: Test A preemergence, Foxtail, Giant; conditions: Preemergence; for Plant response rating, Foxtail, Giant: 125 g ai/ha, visual injury, 0 to 100 scale (0 no effect, 100 complete control), approx. 10 days; for Foxtail, Giant plant response rating: 500 g ai/ha, visual injury on 0 to 100 scale (0 no effect, 100 complete control), approximately 10 days
Summary of the method: as §1

[6] = tested on: barnyardgrass (Echinochloa crus-galli); test: Test A postemergence, barnyardgrass; conditions: Postemergence, 0 to 100 scale (0 no effect, 100 complete control)
Summary of the method: (§2)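 After sowing into a sand-amended loam, pots for the preemergence test were treated by spraying directly onto soil. In parallel, seedlings at the one- to two-leaf stage and 2 to 10 cm tall were treated postemergence with the identical surfactant-containing formulation.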

kochia (Bassia scoparia) [7] = test: Test A postemergence, kochia; conditions: Postemergence, 0 to 100 scale (0 no effect, 100 complete control)
Summary of the method: as §1

[8] = tested on: ragweed (common ragweed, Ambrosia artemisiifolia); test: Test A postemergence, ragweed; conditions: Postemergence, 0 to 100 scale (0 no effect, 100 complete control)
Summary of the method: as §1

[9] = tested on: Ryegrass, Italian (Italian ryegrass, Lolium multiflorum); test: Test A postemergence, Ryegrass, Italian; conditions: Postemergence, 0 to 100 scale (0 no effect, 100 complete control)
Summary of the method: as §1

[10] = tested on: Foxtail, Giant (giant foxtail, Setaria faberi); test: Test A postemergence, Foxtail, Giant; conditions: Postemergence, 0 to 100 scale (0 no effect, 100 complete control)
Summary of the method: as §1

[11] = tested on: pigweed (Amaranthus retroflexus); test: Test A postemergence, pigweed; conditions: Postemergence, 0 to 100 scale (0 no effect, 100 complete control)
Summary of the method: as §1

[12] = tested on: wheat (Triticum aestivum); test: Test A postemergence, wheat; conditions: Postemergence, 0 to 100 scale (0 no effect, 100 complete control)
Summary of the method: as §2

corn (Zea mays) = test: Test A postemergence, corn; conditions: Postemergence, 0 to 100 scale (0 no effect, 100 complete control)
Summary of the method: as §1

[13] = tested on: blackgrass (Alopecurus myosuroides); test: Test A postemergence, blackgrass; conditions: Postemergence, 0 to 100 scale (0 no effect, 100 complete control)
Summary of the method: as §1

[14] = tested on: galium (catchweed bedstraw, Galium aparine); test: Test A postemergence, galium; conditions: Postemergence, 0 to 100 scale (0 no effect, 100 complete control)
Summary of the method: as §2

[15] = 500 g ai/ha, visual injury approx. 10 days

Row | Compound | Plant response rating, Barnyardgrass [1] | Barnyardgrass plant response rating [1] | Plant response rating, Kochia (kochia (Bassia scoparia) [2]) | Kochia plant response rating (kochia (Bassia scoparia) [2]) | Plant response rating, Ragweed [3] | Ragweed plant response rating [3] | Plant response rating, Ryegrass, Italian [4] | Ryegrass, Italian plant response rating [4] | Plant response rating, Foxtail, Giant [5] | Foxtail, Giant plant response rating [5] | Plant response rating, Barnyardgrass ([6]; 125 g ai/ha) | Plant response rating, Barnyardgrass [6, 15] | Plant response rating, Kochia (kochia (Bassia scoparia) [7]; 125 g ai/ha) | Plant response rating, Kochia (kochia (Bassia scoparia) [7]; [15]) | Plant response rating, Ragweed ([8]; 125 g ai/ha) | Plant response rating, Ragweed [8, 15] | Plant response rating, Ryegrass, Italian ([9]; 125 g ai/ha) | Plant response rating, Ryegrass, Italian [9, 15] | Plant response rating, Foxtail, Giant ([10]; 125 g ai/ha) | Plant response rating, Foxtail, Giant [10, 15] | further results
1 | CC(=O)N(c1cc(N2CCC3(CCCCC3)C2=O)c(C)cc1C)S(=O)(=O)C(F)(F)F [Compound 265] | 90 | 100 | 90 | 90 | 90 | 90 | 90 | 100 | 100 | 100 | 60 | 80 | 40 | 50 | 60 | 80 | 20 | 70 | 0 | 20 | Plant response rating, Pigweed ([11]; 125 g ai/ha): 60; Plant response rating, Pigweed [11, 15]: 90; Plant response rating, Wheat ([12]; 125 g ai/ha): 30; Plant response rating, Wheat [12, 15]: 60; Plant response rating, Corn (corn (Zea mays); 125 g ai/ha): 20; Plant response rating, Corn (corn (Zea mays); [15]): 60; Plant response rating, Blackgrass ([13]; 125 g ai/ha): 30; Plant response rating, Blackgrass [13, 15]: 20; Plant response rating, Galium ([14]; 125 g ai/ha): 90; Plant response rating, Galium [14, 15]: 90
2 | COC(=O)N(c1cc(N2CCC3(CCCCC3)C2=O)c(C)cc1C)S(=O)(=O)C(F)(F)F [Compound 266] | 0 | 40 | 0 | 0 | 0 | 0 | 0 | 0 | 0 | 20 | 0 | 20 | 0 | 10 | 0 | 10 | 0 | 0 | 0 | 0 | Plant response rating, Pigweed ([11]; 125 g ai/ha): 0; Plant response rating, Pigweed [11, 15]: 0; Plant response rating, Wheat ([12]; 125 g ai/ha): 0; Plant response rating, Wheat [12, 15]: 0; Plant response rating, Corn (corn (Zea mays); 125 g ai/ha): 0; Plant response rating, Corn (corn (Zea mays); [15]): 0; Plant response rating, Blackgrass ([13]; 125 g ai/ha): 30; Plant response rating, Blackgrass [13, 15]: 0; Plant response rating, Galium ([14]; 125 g ai/ha): 30; Plant response rating, Galium [14, 15]: 90
3 | Cc1cc(C)c(N(S(=O)(=O)C(F)(F)F)S(=O)(=O)C(F)(F)F)cc1N1CC2(CCCCC2)OC1=O [Compound 269] | 100 | 100 | 70 | 100 | 80 | 90 | 80 | 100 | 100 | 100 | 0 | 20 | 30 | 50 | 40 | 90 | 0 | 20 | 0 | 0 | Plant response rating, Pigweed ([11]; 125 g ai/ha): 30; Plant response rating, Pigweed [11, 15]: 70; Plant response rating, Wheat ([12]; 125 g ai/ha): 0; Plant response rating, Wheat [12, 15]: 20; Plant response rating, Corn (corn (Zea mays); 125 g ai/ha): 0; Plant response rating, Corn (corn (Zea mays); [15]): 10; Plant response rating, Blackgrass ([13]; 125 g ai/ha): 20; Plant response rating, Blackgrass [13, 15]: 20; Plant response rating, Galium ([14]; 125 g ai/ha): 70; Plant response rating, Galium [14, 15]: 90
